Results reported in paper PMC8182759, “Cryo-Electron Microscopy of Arabidopsis thaliana Phytochrome A in Its Pr State Reveals Head-to-Head Homodimeric Architecture” (Frontiers in Plant Science, 2021).

T1: AtphyA (Arabidopsis thaliana phytochrome A, full length) (Arabidopsis thaliana, UniProt P14712)
T1 construct: gene PHYA; full length, residues 1-1122, C-terminal hexahistidine tag kept; E. coli BL21(DE3) LOBSTR, plasmid pDG388 co-expressing Synechocystis heme oxygenase and PcyA; homodimer (dimer/monomer mixture at pH 9.3)
T1 sequence (P14712 1-1122): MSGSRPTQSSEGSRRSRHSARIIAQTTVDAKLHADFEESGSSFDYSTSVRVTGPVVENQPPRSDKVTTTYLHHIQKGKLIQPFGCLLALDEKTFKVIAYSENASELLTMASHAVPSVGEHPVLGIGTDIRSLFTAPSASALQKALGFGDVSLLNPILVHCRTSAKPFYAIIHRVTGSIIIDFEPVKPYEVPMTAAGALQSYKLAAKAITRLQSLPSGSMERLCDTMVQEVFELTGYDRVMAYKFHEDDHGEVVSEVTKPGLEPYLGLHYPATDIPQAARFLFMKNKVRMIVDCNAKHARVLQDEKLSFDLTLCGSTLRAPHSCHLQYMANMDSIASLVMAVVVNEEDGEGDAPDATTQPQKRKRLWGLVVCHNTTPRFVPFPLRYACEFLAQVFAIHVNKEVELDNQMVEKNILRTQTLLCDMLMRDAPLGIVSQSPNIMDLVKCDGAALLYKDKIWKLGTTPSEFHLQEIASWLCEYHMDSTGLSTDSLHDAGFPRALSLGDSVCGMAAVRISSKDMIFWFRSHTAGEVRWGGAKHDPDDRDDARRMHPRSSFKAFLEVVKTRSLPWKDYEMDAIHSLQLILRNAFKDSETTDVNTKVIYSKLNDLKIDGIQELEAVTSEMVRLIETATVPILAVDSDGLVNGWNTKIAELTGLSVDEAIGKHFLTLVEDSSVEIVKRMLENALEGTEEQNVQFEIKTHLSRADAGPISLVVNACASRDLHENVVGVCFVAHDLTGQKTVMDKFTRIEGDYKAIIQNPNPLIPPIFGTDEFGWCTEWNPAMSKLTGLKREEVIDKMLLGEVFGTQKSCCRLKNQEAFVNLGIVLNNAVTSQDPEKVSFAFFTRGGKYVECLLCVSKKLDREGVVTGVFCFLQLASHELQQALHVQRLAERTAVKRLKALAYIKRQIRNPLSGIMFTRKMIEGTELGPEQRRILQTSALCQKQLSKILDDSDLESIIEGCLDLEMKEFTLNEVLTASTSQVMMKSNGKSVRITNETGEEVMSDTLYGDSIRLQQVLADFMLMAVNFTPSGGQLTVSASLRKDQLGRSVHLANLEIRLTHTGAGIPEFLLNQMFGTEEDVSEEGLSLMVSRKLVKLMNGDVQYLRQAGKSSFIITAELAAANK


Experiments:
[1] = target: T1, AtphyA (Arabidopsis thaliana phytochrome A, full length); test: zinc-induced bilin fluorescence on denaturing gel; UV/vis absorbance and photoconversion; assay type: binding; settings: covalent; bilin attached to a cysteine of the GAF domain; assembled during co-expression in E. coli with heme oxygenase/PcyA; purified at pH 8.0
[2] = target: the molecule itself; test: cryo-EM structure; single-particle cryo-EM of AtphyA purified at pH 9.3, Pr state (730 nm pre-illumination), 1-1.5 mg/ml, 136,173 particles, refinement with 2-fold symmetry, ~17 Å

| Molecule | zinc-induced bilin fluorescence on denaturing gel; UV/vis absorbance and photoco [1] | stoichiometry N [2] |
| --- | --- | --- |
| C/C=C1/C(=C/c2[nH]c(/C=C3N=C(/C=C4\NC(=O)C(CC)=C4C)C(C)=C\3CCC(=O)O)c(CCC(=O)O)c2C)NC(=O)[C@@H]1C [phycocyanobilin] | full-length AtphyA could be obtained with covalently attached PCB, as detected by zinc-induced bilin fluorescence |  |
| Arabidopsis thaliana phytochrome A (receptor, UniProt P14712 1-1122, looked up, covalently attached phycocyanobilin (PCB) chromophore, Studied in the Pr state after 730 nm illumination; A plasmid map of pDG388 is in the Supplementary Material; No removal of the His tag is described; also called AtphyA; phyA; source: E. coli BL21(DE3) LOBSTR, purified (Ni-NTA IMAC, SEC), coexpressed with Synechocystis sp. heme oxygenase and PcyA) MSGSRPTQSSEGSRRSRHSARIIAQTTVDAKLHADFEESGSSFDYSTSVRVTGPVVENQPPRSDKVTTTYLHHIQKGKLIQPFGCLLALDEKTFKVIAYSENASELLTMASHAVPSVGEHPVLGIGTDIRSLFTAPSASALQKALGFGDVSLLNPILVHCRTSAKPFYAIIHRVTGSIIIDFEPVKPYEVPMTAAGALQSYKLAAKAITRLQSLPSGSMERLCDTMVQEVFELTGYDRVMAYKFHEDDHGEVVSEVTKPGLEPYLGLHYPATDIPQAARFLFMKNKVRMIVDCNAKHARVLQDEKLSFDLTLCGSTLRAPHSCHLQYMANMDSIASLVMAVVVNEEDGEGDAPDATTQPQKRKRLWGLVVCHNTTPRFVPFPLRYACEFLAQVFAIHVNKEVELDNQMVEKNILRTQTLLCDMLMRDAPLGIVSQSPNIMDLVKCDGAALLYKDKIWKLGTTPSEFHLQEIASWLCEYHMDSTGLSTDSLHDAGFPRALSLGDSVCGMAAVRISSKDMIFWFRSHTAGEVRWGGAKHDPDDRDDARRMHPRSSFKAFLEVVKTRSLPWKDYEMDAIHSLQLILRNAFKDSETTDVNTKVIYSKLNDLKIDGIQELEAVTSEMVRLIETATVPILAVDSDGLVNGWNTKIAELTGLSVDEAIGKHFLTLVEDSSVEIVKRMLENALEGTEEQNVQFEIKTHLSRADAGPISLVVNACASRDLHENVVGVCFVAHDLTGQKTVMDKFTRIEGDYKAIIQNPNPLIPPIFGTDEFGWCTEWNPAMSKLTGLKREEVIDKMLLGEVFGTQKSCCRLKNQEAFVNLGIVLNNAVTSQDPEKVSFAFFTRGGKYVECLLCVSKKLDREGVVTGVFCFLQLASHELQQALHVQRLAERTAVKRLKALAYIKRQIRNPLSGIMFTRKMIEGTELGPEQRRILQTSALCQKQLSKILDDSDLESIIEGCLDLEMKEFTLNEVLTASTSQVMMKSNGKSVRITNETGEEVMSDTLYGDSIRLQQVLADFMLMAVNFTPSGGQLTVSASLRKDQLGRSVHLANLEIRLTHTGAGIPEFLLNQMFGTEEDVSEEGLSLMVSRKLVKLMNGDVQYLRQAGKSSFIITAELAAANK |  | 2 |
